US10711002B2, “Purine compounds and method for the treatment of cancer” (THE ROYAL INSTITUTION FOR THE ADVANCEMENT OF …, priority 2016, dated 2020)

What was measured:
PRKCG (PKC gamma) = PRKCG (PKC gamma) (Homo sapiens, UniProt P05129); assay: High-throughput kinase assay; assay type: biochemical; conditions: 50 nM; read-out: Percent inhibition of kinase activity in vitro, PRKCG (PKC gamma)
Protocol: (§1) Screening of Compounds 1-4 against several kinases identified two prominent targets of these compounds as the Aurora A kinase and calcium dependent protein kinase C isoforms α, βI, βII and […] (Tables 1 to 3). IC50s for these two targets were obtained by plotting inhibition levels at 500 nM, 100 nM, 50 nM and 10 nM (FIG. 3). These kinases are directly involved in pathways controlling cell differentiation programs, metastasis signaling, as well as EMT and CSC programming and their overexpression was reported to predict decreased metastasis-free survival.

AKT1 (PKB alpha) = AKT1 (PKB alpha) (Homo sapiens, UniProt P31749); assay: High-throughput kinase assay; assay type: biochemical; conditions: read-out: Percent inhibition of kinase activity in vitro, AKT1 (PKB alpha); for inhibition at 0.1 µM: 100 nM; for inhibition at 0.5 µM: 500 nM
Protocol: as §1

PRKCB1 (PKC beta I) = PRKCB1 (PKC beta I) (Homo sapiens, UniProt P05771); assay: High-throughput kinase assay; assay type: biochemical; conditions: 50 nM; read-out: Percent inhibition of kinase activity in vitro, PRKCB1 (PKC beta I)
Sequence of PRKCB1 (PKC beta I) (P05771 whole entry): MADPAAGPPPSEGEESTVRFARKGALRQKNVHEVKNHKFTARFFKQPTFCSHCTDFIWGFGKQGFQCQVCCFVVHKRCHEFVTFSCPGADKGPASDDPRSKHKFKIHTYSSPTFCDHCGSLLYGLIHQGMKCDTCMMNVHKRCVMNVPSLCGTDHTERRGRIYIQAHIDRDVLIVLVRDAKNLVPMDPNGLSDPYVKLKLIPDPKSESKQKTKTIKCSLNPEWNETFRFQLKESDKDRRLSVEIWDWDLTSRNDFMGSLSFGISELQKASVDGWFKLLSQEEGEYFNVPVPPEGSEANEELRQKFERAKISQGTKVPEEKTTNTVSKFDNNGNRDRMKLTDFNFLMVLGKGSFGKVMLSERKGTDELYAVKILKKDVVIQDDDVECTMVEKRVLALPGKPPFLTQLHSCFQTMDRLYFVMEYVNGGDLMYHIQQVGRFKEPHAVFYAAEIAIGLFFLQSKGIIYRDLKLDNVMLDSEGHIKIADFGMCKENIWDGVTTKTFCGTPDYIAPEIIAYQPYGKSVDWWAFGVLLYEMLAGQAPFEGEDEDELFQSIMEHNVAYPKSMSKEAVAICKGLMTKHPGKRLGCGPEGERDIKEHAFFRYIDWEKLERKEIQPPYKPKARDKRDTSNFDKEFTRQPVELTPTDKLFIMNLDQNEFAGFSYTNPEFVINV
Protocol: as §1

EGFR (ErbB1) = EGFR (ErbB1) (Homo sapiens, UniProt P00533); assay: High-throughput kinase assay; assay type: biochemical; conditions: read-out: Percent inhibition of kinase activity in vitro, EGFR (ErbB1); for inhibition at 0.1 µM: 100 nM; for inhibition at 0.5 µM: 500 nM
Sequence of EGFR (ErbB1) (P00533 25-1210): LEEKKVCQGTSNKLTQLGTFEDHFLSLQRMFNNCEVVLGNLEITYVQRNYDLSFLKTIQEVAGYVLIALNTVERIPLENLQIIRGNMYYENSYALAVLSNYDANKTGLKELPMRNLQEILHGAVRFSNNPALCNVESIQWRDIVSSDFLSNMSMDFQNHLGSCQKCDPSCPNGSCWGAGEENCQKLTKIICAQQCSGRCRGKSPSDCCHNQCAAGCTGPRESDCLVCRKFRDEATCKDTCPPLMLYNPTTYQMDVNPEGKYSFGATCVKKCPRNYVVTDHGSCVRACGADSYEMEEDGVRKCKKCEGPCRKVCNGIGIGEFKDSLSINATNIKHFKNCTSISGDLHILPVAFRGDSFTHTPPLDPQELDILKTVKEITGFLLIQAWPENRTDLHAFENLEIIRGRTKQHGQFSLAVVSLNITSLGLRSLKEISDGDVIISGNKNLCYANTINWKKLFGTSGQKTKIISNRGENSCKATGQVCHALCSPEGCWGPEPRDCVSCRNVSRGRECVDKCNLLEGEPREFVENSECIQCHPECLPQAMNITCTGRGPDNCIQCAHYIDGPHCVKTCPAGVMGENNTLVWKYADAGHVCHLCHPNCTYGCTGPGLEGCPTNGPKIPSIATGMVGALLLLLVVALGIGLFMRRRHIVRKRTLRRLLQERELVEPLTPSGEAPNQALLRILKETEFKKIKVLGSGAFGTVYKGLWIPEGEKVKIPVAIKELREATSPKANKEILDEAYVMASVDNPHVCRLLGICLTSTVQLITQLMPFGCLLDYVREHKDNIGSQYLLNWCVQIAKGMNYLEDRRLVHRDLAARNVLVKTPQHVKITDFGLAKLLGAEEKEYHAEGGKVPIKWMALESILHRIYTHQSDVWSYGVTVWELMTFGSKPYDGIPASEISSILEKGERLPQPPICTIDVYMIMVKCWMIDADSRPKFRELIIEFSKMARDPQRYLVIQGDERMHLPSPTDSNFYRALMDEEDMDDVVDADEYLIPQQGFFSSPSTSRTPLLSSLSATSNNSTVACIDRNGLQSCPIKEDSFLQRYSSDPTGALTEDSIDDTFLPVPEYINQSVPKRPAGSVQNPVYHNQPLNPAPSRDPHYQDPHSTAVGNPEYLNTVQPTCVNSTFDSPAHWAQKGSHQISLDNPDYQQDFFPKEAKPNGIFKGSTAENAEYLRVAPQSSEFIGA
Protocol: as §1

SRC = SRC (Homo sapiens, UniProt P12931); assay: High-throughput kinase assay; assay type: biochemical; conditions: read-out: Percent inhibition of kinase activity in vitro, SRC; for inhibition at 0.1 µM: 100 nM; for inhibition at 0.5 µM: 500 nM
Sequence of SRC (P12931 whole entry): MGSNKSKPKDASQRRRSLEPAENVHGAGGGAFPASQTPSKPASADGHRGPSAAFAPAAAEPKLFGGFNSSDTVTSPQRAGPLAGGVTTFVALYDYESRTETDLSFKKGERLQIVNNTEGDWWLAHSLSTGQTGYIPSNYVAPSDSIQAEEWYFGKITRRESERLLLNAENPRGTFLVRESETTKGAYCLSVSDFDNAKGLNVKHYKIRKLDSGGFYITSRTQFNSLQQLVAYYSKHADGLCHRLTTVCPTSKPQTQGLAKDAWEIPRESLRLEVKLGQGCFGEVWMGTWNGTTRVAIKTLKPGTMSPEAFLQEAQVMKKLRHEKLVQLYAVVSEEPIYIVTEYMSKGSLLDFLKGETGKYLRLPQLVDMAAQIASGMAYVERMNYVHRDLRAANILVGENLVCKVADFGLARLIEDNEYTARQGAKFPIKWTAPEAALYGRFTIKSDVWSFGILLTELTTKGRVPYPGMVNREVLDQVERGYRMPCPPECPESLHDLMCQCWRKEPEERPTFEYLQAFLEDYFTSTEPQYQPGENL
Protocol: as §1

AURKC (Aurora C) = target: T1, AURKC (Aurora C) (Homo sapiens, UniProt Q9UQB9); assay: High-throughput kinase assay; assay type: biochemical; conditions: read-out: Percent inhibition of kinase activity in vitro, AURKC (Aurora C); for inhibition at 0.1 µM: 100 nM; for inhibition at 0.5 µM: 500 nM
T1 sequence (Q9UQB9 1-309): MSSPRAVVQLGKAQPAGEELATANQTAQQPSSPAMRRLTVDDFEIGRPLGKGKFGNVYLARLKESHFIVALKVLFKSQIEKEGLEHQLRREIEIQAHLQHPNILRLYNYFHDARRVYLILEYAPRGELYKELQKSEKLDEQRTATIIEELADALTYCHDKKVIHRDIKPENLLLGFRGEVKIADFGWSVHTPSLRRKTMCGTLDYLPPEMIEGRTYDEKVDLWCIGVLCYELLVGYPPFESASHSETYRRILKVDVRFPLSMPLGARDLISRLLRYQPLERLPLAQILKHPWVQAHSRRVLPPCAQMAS
Protocol: as §1

YES1 = YES1 (Homo sapiens, UniProt P07947); assay: High-throughput kinase assay; assay type: biochemical; conditions: read-out: Percent inhibition of kinase activity in vitro, YES1; for inhibition at 0.1 µM: 100 nM; for inhibition at 0.5 µM: 500 nM
Protocol: as §1

RET = RET (Homo sapiens, UniProt P07949); assay: High-throughput kinase assay; assay type: biochemical; conditions: read-out: Percent inhibition of kinase activity in vitro, RET; for inhibition at 0.1 µM: 100 nM; for inhibition at 0.5 µM: 500 nM
Sequence of RET (P07949 29-1114): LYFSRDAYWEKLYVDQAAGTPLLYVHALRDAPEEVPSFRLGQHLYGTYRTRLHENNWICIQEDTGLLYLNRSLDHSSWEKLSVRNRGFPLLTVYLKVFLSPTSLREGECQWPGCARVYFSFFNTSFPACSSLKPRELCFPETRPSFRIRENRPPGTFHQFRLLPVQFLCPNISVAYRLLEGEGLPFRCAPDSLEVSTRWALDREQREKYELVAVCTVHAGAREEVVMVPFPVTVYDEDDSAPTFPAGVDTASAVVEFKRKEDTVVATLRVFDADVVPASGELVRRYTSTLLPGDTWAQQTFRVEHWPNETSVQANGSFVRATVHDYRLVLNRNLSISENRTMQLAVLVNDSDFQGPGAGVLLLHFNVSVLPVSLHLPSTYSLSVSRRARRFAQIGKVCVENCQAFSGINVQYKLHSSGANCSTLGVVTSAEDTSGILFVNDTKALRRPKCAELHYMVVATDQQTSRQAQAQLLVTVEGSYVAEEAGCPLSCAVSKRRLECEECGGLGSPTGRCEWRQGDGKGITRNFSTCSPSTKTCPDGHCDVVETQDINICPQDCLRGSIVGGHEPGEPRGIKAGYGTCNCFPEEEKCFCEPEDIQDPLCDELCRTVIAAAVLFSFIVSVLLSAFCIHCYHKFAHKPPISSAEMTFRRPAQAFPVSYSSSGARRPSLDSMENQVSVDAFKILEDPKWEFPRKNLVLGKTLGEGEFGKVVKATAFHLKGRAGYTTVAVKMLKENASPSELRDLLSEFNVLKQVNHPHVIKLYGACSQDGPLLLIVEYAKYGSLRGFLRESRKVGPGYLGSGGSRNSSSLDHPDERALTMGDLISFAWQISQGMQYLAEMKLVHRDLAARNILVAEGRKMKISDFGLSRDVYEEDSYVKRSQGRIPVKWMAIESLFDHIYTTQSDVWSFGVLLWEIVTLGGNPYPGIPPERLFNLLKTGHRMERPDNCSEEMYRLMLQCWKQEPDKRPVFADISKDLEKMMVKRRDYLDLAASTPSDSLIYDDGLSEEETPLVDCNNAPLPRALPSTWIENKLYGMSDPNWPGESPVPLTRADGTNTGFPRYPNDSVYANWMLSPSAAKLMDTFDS
Protocol: as §1

PRKCE (PKC epsilon) = target: T2, PRKCE (PKC epsilon) (Homo sapiens, UniProt Q02156); assay: High-throughput kinase assay; assay type: biochemical; conditions: 50 nM; read-out: Percent inhibition of kinase activity in vitro, PRKCE (PKC epsilon)
T2 sequence (Q02156 1-737): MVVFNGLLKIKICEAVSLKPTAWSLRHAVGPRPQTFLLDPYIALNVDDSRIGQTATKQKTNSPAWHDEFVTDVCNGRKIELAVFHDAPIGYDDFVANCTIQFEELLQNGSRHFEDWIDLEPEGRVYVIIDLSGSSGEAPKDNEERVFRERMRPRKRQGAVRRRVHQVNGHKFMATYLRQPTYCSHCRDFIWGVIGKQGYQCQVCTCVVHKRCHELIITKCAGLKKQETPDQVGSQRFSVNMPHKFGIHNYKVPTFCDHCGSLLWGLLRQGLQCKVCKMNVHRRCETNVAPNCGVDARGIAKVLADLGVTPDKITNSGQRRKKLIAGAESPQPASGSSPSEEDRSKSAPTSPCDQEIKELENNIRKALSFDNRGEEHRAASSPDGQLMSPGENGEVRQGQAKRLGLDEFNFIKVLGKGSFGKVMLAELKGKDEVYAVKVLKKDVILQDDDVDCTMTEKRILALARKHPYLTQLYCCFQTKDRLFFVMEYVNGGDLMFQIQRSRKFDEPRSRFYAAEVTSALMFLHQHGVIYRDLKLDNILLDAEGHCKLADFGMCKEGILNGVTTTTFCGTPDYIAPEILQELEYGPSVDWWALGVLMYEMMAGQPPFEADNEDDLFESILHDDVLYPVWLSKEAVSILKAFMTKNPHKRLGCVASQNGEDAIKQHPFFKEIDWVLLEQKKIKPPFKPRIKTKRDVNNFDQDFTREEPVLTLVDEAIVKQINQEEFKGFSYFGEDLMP
Protocol: as §1

PIK3CA/PIK3R1 = PIK3CA/PIK3R1 (Homo sapiens, UniProt P42336); assay: High-throughput kinase assay; assay type: biochemical; conditions: read-out: Percent inhibition of kinase activity in vitro, PIK3CA/PIK3R1; for inhibition at 0.1 µM: 100 nM; for inhibition at 0.5 µM: 500 nM
Protocol: as §1

FLT1 (VEGFR1) = FLT1 (VEGFR1) (Homo sapiens, UniProt P17948); assay: High-throughput kinase assay; assay type: biochemical; conditions: read-out: Percent inhibition of kinase activity in vitro, FLT1 (VEGFR1); for inhibition at 0.1 µM: 100 nM; for inhibition at 0.5 µM: 500 nM
Sequence of FLT1 (VEGFR1) (P17948 27-1338): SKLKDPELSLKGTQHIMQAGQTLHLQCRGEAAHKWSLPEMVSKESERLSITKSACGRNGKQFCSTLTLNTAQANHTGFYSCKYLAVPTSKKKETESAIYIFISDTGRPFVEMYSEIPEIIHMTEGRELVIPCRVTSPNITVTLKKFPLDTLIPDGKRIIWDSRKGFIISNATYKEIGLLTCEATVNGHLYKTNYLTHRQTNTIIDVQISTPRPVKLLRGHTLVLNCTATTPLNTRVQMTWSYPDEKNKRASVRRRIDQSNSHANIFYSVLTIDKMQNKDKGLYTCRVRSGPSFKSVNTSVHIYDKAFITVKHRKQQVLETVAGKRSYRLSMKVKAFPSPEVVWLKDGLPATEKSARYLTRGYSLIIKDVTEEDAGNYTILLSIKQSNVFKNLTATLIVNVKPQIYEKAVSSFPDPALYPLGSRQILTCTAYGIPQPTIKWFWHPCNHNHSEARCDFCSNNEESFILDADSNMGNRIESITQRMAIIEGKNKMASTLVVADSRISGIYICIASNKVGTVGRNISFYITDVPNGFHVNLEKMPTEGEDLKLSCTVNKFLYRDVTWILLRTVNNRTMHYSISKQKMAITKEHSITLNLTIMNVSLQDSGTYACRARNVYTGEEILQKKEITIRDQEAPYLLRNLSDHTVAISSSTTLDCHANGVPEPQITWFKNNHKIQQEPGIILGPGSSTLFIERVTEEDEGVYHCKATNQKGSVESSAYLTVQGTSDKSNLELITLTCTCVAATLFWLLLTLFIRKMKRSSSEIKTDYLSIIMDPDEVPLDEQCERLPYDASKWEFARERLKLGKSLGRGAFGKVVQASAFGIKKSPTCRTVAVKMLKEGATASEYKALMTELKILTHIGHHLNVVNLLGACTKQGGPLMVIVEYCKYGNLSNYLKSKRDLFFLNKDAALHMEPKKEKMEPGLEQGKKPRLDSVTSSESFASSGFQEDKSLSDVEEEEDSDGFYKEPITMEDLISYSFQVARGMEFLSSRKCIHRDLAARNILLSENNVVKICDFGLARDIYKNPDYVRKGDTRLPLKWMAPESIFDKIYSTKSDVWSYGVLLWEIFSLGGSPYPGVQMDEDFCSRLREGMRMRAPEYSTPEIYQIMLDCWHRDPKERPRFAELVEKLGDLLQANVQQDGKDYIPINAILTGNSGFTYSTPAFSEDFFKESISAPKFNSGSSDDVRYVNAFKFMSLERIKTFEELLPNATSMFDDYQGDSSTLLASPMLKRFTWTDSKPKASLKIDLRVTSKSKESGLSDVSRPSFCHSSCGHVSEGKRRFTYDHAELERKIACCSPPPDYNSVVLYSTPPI
Protocol: as §1

[1] = test system: Mia-PaCa (human pancreatic carcinoma); assay: In vivo primary tumor growth, subcutaneous implant; design: species or system SCID mice
Excerpt: (§2) In vivo studies were approved by McGill Animal Care Committee. Cells growing in exponential phase of growth (1×10^6 cells/mouse) were transplanted into the mammary fat pad of female SCID (MDA231/M) or Balb/c (4T1) mice. Mia-PaCa cells and RENCA cells were implanted subcutaneously in SCID or Balb/c mice respectively. When primary tumors became palpable mice were randomized and blindly assigned treatment groups. Treatment was given PO for 4 cycles (3 times a week: day 1, day 3, day 5) (n=8-10 mice per condition). Control mice received the vehicle alone (1% DMSO in physiologic solution). […] Tumor size was measured using a caliper. At the study termination (60-90 days) primary tumors were excised and weighted. The lungs were fixed in 10% Bouin's fixative and lung surface metastases were counted using a stereomicroscope.

[2] = test system: RENCA (renal adenocarcinoma); assay: In vivo primary tumor growth, subcutaneous implant; design: species or system Balb/c mice
Excerpt: as §2

Row | Structure (SMILES) | inhibition at 0.05 µM (PRKCG (PKC gamma)) [%] | inhibition at 0.1 µM (AKT1 (PKB alpha)) [%] | inhibition at 0.5 µM (AKT1 (PKB alpha)) [%] | inhibition at 0.05 µM (PRKCB1 (PKC beta I)) [%] | inhibition at 0.1 µM (EGFR (ErbB1)) [%] | inhibition at 0.5 µM (EGFR (ErbB1)) [%] | inhibition at 0.1 µM (SRC) [%] | inhibition at 0.5 µM (SRC) [%] | inhibition at 0.1 µM (AURKC (Aurora C)) [%] | inhibition at 0.5 µM (AURKC (Aurora C)) [%] | inhibition at 0.1 µM (YES1) [%] | inhibition at 0.5 µM (YES1) [%] | inhibition at 0.1 µM (RET) [%] | inhibition at 0.5 µM (RET) [%] | inhibition at 0.05 µM (PRKCE (PKC epsilon)) [%] | inhibition at 0.1 µM (PIK3CA/PIK3R1) [%] | inhibition at 0.5 µM (PIK3CA/PIK3R1) [%] | inhibition at 0.1 µM (FLT1 (VEGFR1)) [%] | inhibition at 0.5 µM (FLT1 (VEGFR1)) [%] | other results
1 | O=c1c2ccccc2[se]n1-c1nc(NC2CCCCC2)c2nc[nH]c2n1 [Compound 1] | 45 | 4 | 11 | 59 | 1 | 0 | 1 | 5 | 2 | 10 | 22 | 47 | 5 | 23 | 6 | 0 | 61 | 0 | 1 | 
2 | O=c1c2ccccc2[se]n1-c1nc(NC2CC[Se]C2)c2nc[nH]c2n1 (stereo not shown) [Compound 2] |  | 4 | 15 |  |  | 0 | 4 | 7 | 0 | 11 | 22 | 35 | 6 | 18 |  | 0 | 62 |  | 5 | 
3 | C[C@@H]1C(Nc2nc(-n3[se]c4ccccc4c3=O)nc3[nH]cnc23)C[C@H]2C[C@@H]1C2(C)C (stereo partly shown) [Compound 3] |  | 1 | 29 |  |  | 0 | 4 | 7 | 0 | 7 | 17 | 53 | 5 | 36 |  | 12 | 53 |  | 7 | 
4 | O=c1c2ccccc2[se]n1-c1nc(N[C@H]2CC[Se]C2)c2nc[nH]c2n1 [Compound 4] | 47 | 4 |  | 95 | 0 |  | 4 |  | 0 |  | 24 |  | 10 |  | 5 | 0 |  | 4 |  | Primary tumor weight ([1]; Mia-PaCa subcutaneous in SCID mice, PO, at study termination): 0.6 ± 0.14 g; pancreatic cancer cell (Mia-PaCa) growth in vivo ([1]; mouse, in vivo): able to inhibit; Primary tumor weight (% inhibition vs. control) ([2]; RENCA subcutaneous in Balb/c mice, PO): (34-55%); renal adenocarcinoma cell (RENCA) growth in vivo ([2]; mouse, in vivo): able to inhibit
5 | O=C1c2ccccc2CN1c1nc(NC2CCCCC2)c2nc[nH]c2n1 [SLLN-6C, reference compound] | 0 | 2 |  | 5 | 4 |  | 3 |  | 0 |  | 5 |  | 6 |  | 4 | 0 |  | 0 |  | 
